“Also recorded” adds a separate entry of the source.
Columns and labels:
MD-2 = biological target: T1, MD-2 (Homo sapiens, UniProt Q9Y6Y9); experiment: MD-2 binding to solid phase phospholipids; conditions: for binding to MD-2: 1.25 nmole lipid per well, MD-2 1 μg/ml
T1 construct: made in house; host or cells: baculovirus-insect cell expression system
T1 sequence (Q9Y6Y9 19-160): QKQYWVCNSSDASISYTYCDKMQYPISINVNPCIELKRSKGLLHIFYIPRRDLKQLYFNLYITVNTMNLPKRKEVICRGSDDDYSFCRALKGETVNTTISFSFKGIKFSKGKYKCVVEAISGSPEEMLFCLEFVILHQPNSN
Protocol: FIG. 16. MD-2 preferentially binds POPG.
(§1) The wells were then washed with 20 mM Tris buffer (pH 7.4) containing 0.15 M NaCl and 5 mM CaCl2 or 2 mM EGTA (buffer B), and 1 μg/ml anti-human CD14 IgG or anti-His antibody (50 μl/well) in buffer A was added and incubated overnight at 4° C., followed by the incubation with horseradish peroxidase (HRP)-labeled anti-mouse IgG (1:5000) for 1 h. After washing the wells with buffer B, the peroxidase reaction was finally performed using o-phenylenediamine as a substrate. The binding of CD14 or MD-2 to phospholipids was detected by measuring absorbance at 490 nm.

[1] = test system: human alveolar macrophages; experiment: LPS-induced TNF-α production by primary human alveolar macrophages; format: cell-based; conditions: LPS 10 ng/ml, phospholipids 20 μg/ml, 6 h
Protocol: (§2) FIG. 8. POPG, DMPG and PI antagonize the effects of LPS on primary human alveolar macrophages. Human alveolar macrophages were isolated from healthy volunteer BALF and plated onto a 96-well plate. Two days after plating, 10 ng/ml of LPS and 20 μg/ml of phospholipids were added to monolayer cultures of human alveolar macrophages. 6 h after stimulation, media were collected and TNF-α production was determined by ELISA. LPS stimulation without phospholipid was set at 100%. […] The average TNF-α secretion after LPS stimulation was 30.7±15.1 ng/ml. Significance—**: p<0.01, when compared with LPS stimulation in the absence of POPG.
Human alveolar macrophages were isolated from BALF of healthy volunteers using protocols reviewed and approved by the National Jewish Medical Research Center IRB and the University of Colorado General Clinical Research Center. The lungs were lavaged with pyrogen-free saline, and alveolar macrophages were sedimented by centrifugation at 150×g×5 min. Isolated macrophages were plated at 5×10^4 cells/well in 96-well plates (Falcon) in RPMI 1640 medium containing 10% BGS. The cells were allowed to adhere for 48 h and then used for the experiments after washing with PBS to remove the unattached cells.
U937 cells were induced to differentiate by treatment with 10 nM phorbol myristate acetate (PMA) for 48 h. The cells (1.3×10^5/well) were placed in 96-well plates and further incubated in the absence of PMA for 24 h in RPMI 1640 medium containing 10% BGS. Rat alveolar macrophages (5×10^5/well) were incubated in 24-well plates for 2 h after isolation. The indicated concentration of phospholipids was added to the cultures 30 min before adding LPS. After LPS addition cultures were incubated for 6 h at 37° C. at an atmosphere of 95% air and 5% CO2. At the end of the incubation period the medium was collected and assayed for TNF-α concentrations using an ELISA kit.
as §2, with “Human” for “FIG. 8. POPG, DMPG and PI antagonize the effects of LPS on primary human alveolar macrophages. Human”, “phospholipids (POPG, DMPG and PI)” for “phospholipids”

human CD14 = biological target: T2, human CD14 (Homo sapiens, UniProt P08571); experiment: CD14 binding to solid phase phospholipids (ELISA); conditions: for direct binding of CD14 to molecular species of PG: CD14 1 μg/ml, POPG = 100%; for binding of CD14 to solid phase lipid: varying CD14, 37° C. 1 h
T2 construct: purchased Cell Sciences Inc. (Canton, Mass.)
T2 sequence (P08571 20-345): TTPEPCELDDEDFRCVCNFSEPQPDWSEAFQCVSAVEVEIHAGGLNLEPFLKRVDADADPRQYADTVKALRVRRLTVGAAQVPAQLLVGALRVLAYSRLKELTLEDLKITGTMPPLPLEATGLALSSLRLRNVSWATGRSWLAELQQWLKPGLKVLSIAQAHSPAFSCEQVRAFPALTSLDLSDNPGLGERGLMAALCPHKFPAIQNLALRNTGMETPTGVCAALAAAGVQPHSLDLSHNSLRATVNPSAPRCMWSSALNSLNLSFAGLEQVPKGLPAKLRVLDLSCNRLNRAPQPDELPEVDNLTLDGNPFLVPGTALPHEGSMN
Protocol: FIG. 12. CD14 binds to solid phase lipids. […] Nonspecific binding was blocked with 20 mM Tris buffer (pH 7.4) containing 0.15 M NaCl, 5 mM CaCl2 (in the upper panel) or 2 mM EGTA (in the lower panel), and 5% (wt/vol) BSA (buffer A).
FIG. 13. PG Inhibits CD14 binding to solid phase LPS. (A) Various types of PG were coated onto microtiter plates, and incubated with CD14 (1 μg/ml) at 37° C. for 1 h. […] Types of PG shown on the graph are: dilauroylphosphatidylglycerol (DLPG), dimyristoyl-phosphatidylglycerol (DMPG), dipalmitoylphosphatidylglycerol (DPPG), and 16:0/18:1; palmitoyl-oleoyl-phosphatidylglycerol (POPG). […] The binding of CD14 to LPS was detected using anti-CD14 monoclonal antibody. The ELISA based absorbance of CD14 bound to LPS was defined as 100%.
as §1

TLR2 = TLR2 (Homo sapiens, UniProt O60603); experiment: TLR agonist IL-8 production in BEAS2B epithelial cells, TLR2; format: cell-based; set-up: endogenous in cells; host or cells: BEAS2B; conditions: Mycoplasma pneumoniae membranes, 48 h
Sequence of TLR2 (O60603 21-784): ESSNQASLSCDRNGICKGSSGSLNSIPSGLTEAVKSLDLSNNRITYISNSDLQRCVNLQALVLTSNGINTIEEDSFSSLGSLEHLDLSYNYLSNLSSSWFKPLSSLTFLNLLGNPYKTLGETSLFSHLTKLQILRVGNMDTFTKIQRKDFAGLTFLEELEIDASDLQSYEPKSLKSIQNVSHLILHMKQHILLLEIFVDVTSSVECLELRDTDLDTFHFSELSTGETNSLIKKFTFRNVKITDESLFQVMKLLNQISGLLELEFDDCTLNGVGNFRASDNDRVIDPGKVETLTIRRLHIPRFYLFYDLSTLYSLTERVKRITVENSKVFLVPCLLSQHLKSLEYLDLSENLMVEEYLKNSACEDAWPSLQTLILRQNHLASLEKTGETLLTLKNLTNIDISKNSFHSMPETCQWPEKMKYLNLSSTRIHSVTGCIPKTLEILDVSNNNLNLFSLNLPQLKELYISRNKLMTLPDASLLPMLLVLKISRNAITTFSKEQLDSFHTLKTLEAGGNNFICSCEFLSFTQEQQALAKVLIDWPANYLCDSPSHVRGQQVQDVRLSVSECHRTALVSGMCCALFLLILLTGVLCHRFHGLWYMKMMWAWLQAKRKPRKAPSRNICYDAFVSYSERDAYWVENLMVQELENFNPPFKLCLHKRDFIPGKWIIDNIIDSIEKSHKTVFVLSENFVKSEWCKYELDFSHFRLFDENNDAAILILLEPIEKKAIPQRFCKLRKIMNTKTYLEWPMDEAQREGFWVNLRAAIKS
Protocol: In this experiment, multiple TLRs were stimulated with defined TLR agonists for 48 h, and the IL-8 production was measured. In each case, the maximal stimulation by agonist is set at 100% and the antagonism by POPG or PI is expressed as the relative % response. The Controls consist of no treatment, or treatment with POPG, or phosphatidylcholine (POPC), or phosphatidylinositol (PI), in the absence of agonist as indicated. The agonists for the TLRs consist of Pam3Cys for TLR1/2, Mycoplasma pneumoniae membranes as an agonist for TLR2, Mycoplasma fermentans derived MALP2 as an agonist for TLR 2/6, double stranded RNA (poly IC) for TLR3, and bacterial flagellin (Fla) as an agonist for TLR5.
Monolayers of BEAS2B cells were challenged with the TLR1/2 agonist, Pam3Cys (25 ug/ml); the TLR 2/6 agonist MALP2 (10 ng/ml); the TLR2 agonist mycoplasma membrane (Mem) (1 ug/ml); the TLR3 agonist, poly I:C (0.1 ug/ml); and the TLR5 agonist, flagellin (100 ng/ml). For each agonist parallel incubations were performed containing 200 ug/ml POPG as liposomes, or 200 ug/ml POPG as nanodises as indicated.

| Compound | binding to MD-2 relative to the POPG value (MD-2; POPG = 100%) [%] | LPS-induced TNF-α production [1] | LPS-induced TNF-α production ([1]; listed as dimyristoyl PG) | direct binding of CD14 to molecular species of PG (human CD14) | binding to MD-2 (MD-2) | activity of TLR2 (IL-8 production) (TLR2) | binding of CD14 to solid phase lipid (human CD14; 1.25 nmole lipid per well) | binding of CD14 relative to the levels of POPG binding (human CD14; 1.25 nmole lipid per well) |
| --- | --- | --- | --- | --- | --- | --- | --- | --- |
| CCCCCCCCCCCCCC(=O)OCC(COP(=O)(O)OCC(O)CO)OC(=O)CCCCCCCCCCCCC (stereo not drawn) [DMPG, dimyristoyl-phosphatidylglycerol] | ~50 | antagonize | markedly attenuate | strongest direct binding interactions |  |  |  |  |
| phosphatidylinositol [PI] |  | markedly attenuate; also recorded: antagonize |  |  | Neither saturated nor unsaturated PC, nor unsaturated PI, nor DPPG showed any significant binding | inhibit | strongly bound |  |
| CCCCCCCC/C=C\CCCCCCCC(=O)O[C@H](COC(=O)CCCCCCCCCCCCCCC)COP(=O)(O)OCC(O)CO (stereo partly drawn) [POPG, palmitoyl-oleoyl-phosphatidylglycerol] |  | markedly attenuate; also recorded: antagonize |  | strongest direct binding interactions | strongly bound | inhibit | strongly bound |  |
| CCCCCCCCCCCCCCCC(=O)OC[C@H](COP(=O)([O-])OCC[N+](C)(C)C)OC(=O)CCCCCCCCCCCCCCC [DPPC, dipalmitoyl-phosphatidylcholine, reference compound] |  | no significant effect |  |  |  |  |  | approximately 30% |
| CCCCCCCCCCCCCCCC(=O)OCC(COP(=O)(O)OCC(O)CO)OC(=O)CCCCCCCCCCCCCCC (stereo not drawn) [DPPG, dipalmitoyl-phosphatidylglycerol, reference compound] |  | no significant effect |  | nearly the same extent as POPG and DMPG | Neither saturated nor unsaturated PC, nor unsaturated PI, nor DPPG showed any significant binding |  |  |  |

Reference: patent publication US10532066B2, “Surfactant lipids, compositions thereof, and uses thereof” (National Jewish Health, priority 2007, dated 2020)
